Measured values: patent publication US5696117A, “Benzoxazine antimicrobial agents” (Ortho Pharmaceutical Corporation, priority 1995, dated 1997)
Structures can show the parent of a compound that is named as a salt.

Target: T1, Kinase A and SpoOF (Bacillus subtilis, UniProt P16497)
T1 construct: made in house; host or cells: recombinant E. coli (overexpression)
T1 sequence (P16497 1-606): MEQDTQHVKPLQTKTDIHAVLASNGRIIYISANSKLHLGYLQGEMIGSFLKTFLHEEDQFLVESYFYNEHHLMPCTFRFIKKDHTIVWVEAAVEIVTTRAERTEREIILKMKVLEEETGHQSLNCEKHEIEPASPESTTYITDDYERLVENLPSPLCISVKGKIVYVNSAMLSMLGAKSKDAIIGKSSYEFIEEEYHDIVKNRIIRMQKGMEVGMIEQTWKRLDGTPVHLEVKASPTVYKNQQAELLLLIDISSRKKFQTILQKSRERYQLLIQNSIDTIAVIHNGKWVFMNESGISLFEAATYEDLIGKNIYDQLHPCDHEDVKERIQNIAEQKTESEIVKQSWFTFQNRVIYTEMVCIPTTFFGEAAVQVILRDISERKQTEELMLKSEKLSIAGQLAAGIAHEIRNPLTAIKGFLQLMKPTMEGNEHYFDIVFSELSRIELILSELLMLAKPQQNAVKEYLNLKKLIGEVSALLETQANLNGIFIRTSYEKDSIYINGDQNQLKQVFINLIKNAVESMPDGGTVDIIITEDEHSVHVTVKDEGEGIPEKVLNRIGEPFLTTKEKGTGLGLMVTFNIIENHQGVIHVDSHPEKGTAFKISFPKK
Experiment: Autophosphorylation of Kinase A and Transphosphorylation of SpoOF Assay (HPK in vitro assay)
Type: biochemical
Details: inhibition of KinA autophosphorylation / SpoOF transphosphorylation, inhibitor concentrations from 1 to 500 μM
Protocol: 1. Autophosphorylation of Kinase A and Transphosphorylation of SpoOF Assay
To study the effect of the compounds of the present invention on the signal transduction process in bacteria, the inhibiting effect of the compounds on the sporulation operon proteins Kinase A and SpoOF was examined. Specifically, the inhibition of autophosphorylation of Kinase A and the transphosphorylation of SpoOF was determined in the following assays. The SpoOF response regulator is the primary substrate for phosphorylation by the protein kinase, Kin A, involved in the sporulation process in bacteria. See D. Burbulys, K. A. Trach, J. A. Hoch, Cell, 64, 545-552 (1991). SpoOF and KinA were prepared from recombinant E. coli overexpressing the proteins (J. Cavanagh et al, Amino Acids, 6, 131-140 (1994) and references therein).
The following stock reagents were either prepared and used promptly or stored at the indicated temperature:
8× Salts: 2M KCl (5 mL), 1M MgCl2 (800 mL), 1M CaCl2 (100 mL), 10 mg/mL phenylmethylsulfonyl fluoride (200 mL), 1M dithioreitol (50 mL), 0.25M Na2 EDTA (32 mL) and H2 O 3.82 mL (-20° C.)
5× Loading Dye: 0.5M TRIS-HCl-pH 6.8 (7.5 mL), 10% SDS (2 mL) 0.1% bromophenol blue (0.5 mL), 100% glycerol (3 mL) and 12.5M 2-mercaptoethanol (0.3 mL)
1-1.3 mg/mL KinA:15 mM TRIS-HCl, pH 8.0, 6 mM KCl; 4 mM 2-mercaptoethanol; 40% glycerol (-20° C.)
1 mg/mL SpoOF: 17.5 mM TRIS-HCl, pH 8.0; 0.7 mM KCl; 0.7 mM MgCl2; 0.7 mM CaCl2; 5mM 2-mercaptoethanol; 30% Glycerol (-20° C.)
5% Stacking Gel: 40% 29:1 acrylamide:bis acrylamide (1.25 mL), 0.5M TRIS-HCl, pH 6.8 (2.5 mL), 10% SDS (0.1 mL), D-H2 O (6.15 mL) 10% ammonium persulfate (100 mL) and TEMED (25 mL)
SDS Running Buffer: TRIS-BASE (3.02 g), glycine (14.4 g) SDS (1 g), D-H2 O (to 1 L)
The reaction mixture was prepared from 8× Salts (87 μL), 1M TRIS, pH 8 (118 μL), 50% glycerol (63 μL), SpoOF (14.1 μL) and KinA (7.0 μL). Microcentrifuge tubes were charged with the reaction mixture (18.5 μL) and a 1.0 mM solution of the test compound in 5% DMSO (18.5 μL), and incubated for 15 min on ice. 100 mM ATP solution (3.0 μl, containing 625 μCi [^32 P]ATP) was added, and the mixture left for 10 minutes at room temperature. The reaction was quenched with 5× loading dye (10 μL per tube) and the samples were loaded on a prepared 5% Stacking Gel, or stored on dry ice until ready for use. The prepared wells were filled with SDS Running Buffer, samples were loaded into the wells, and 80 volts were applied to the gel until the dye front reached the bottom of the stacking gel. The voltage was then increased to 250 volts until electrophoresis was complete. Radioactive bands in the gel corresponding to phosphorylated KinA and SpoOF were imaged and quantitated with a phosphoimager.
If either enzyme was inhibited (as evidenced by the absence of labelled protein in the developed gel), an IC50 was calculated by running the assay with a range of inhibitor concentrations from 1 to 500 μM. After electrophoresis of the reaction mixtures, percent inhibition was determined by measuring the concentration of radioactive phosphorus with a phosphoimager and calculating the values using a software program (BioRad Molecular Analyst). IC50 values of less than 500 μM are considered active.

Row | Molecule | IC50
1 | 3,4-Dihydro-4-(2,4-dichlorobenzyl)-2-{2-[4-(2-guanidinoethyl)phenoxy]ethyl}-3-oxo-2H-1,4-benzoxazine [Compound 141] | 37 µM
2 | CC(C)(C)OC(=O)NCc1ccc(OCCC2Oc3ccccc3N(Cc3cccc(Cl)c3)C2=O)cc1 (stereo not drawn) [Compound 1, 2-[2-[4-(t-Butoxycarbonylaminomethyl)phenoxy]ethyl]-4-(3-chlorobenzyl)-3,4-dihydro-3-oxo-2H-1,4-benzoxazine] | 253 µM
3 | CC(C)(C)OC(=O)NCc1ccc(OCCC2Oc3ccccc3N(Cc3ccc(Cl)cc3)C2=O)cc1 (stereo not drawn) [Compound 3, 2-[2-[4-(t-Butoxycarbonylaminomethyl)phenoxy]ethyl]-4-(4-chlorobenzyl)-3,4-dihydro-3-oxo-2H-1,4-benzoxazine] | 283 µM
4 | CC(C)(C)OC(=O)NCCc1cccc(OCCC2Oc3ccccc3N(Cc3ccc(Cl)cc3)C2=O)c1 (stereo not drawn) [Compound 7, 2-{2-[3-(2-t-Butoxycarbonylaminoethyl)phenoxy]ethyl}-4-(4-chlorobenzyl)-3,4-dihydro-3-oxo-2H-1,4-benzoxazine] | 308 µM
5 | NCc1cccc(OCCC2Oc3ccccc3N(Cc3ccc(Cl)cc3)C2=O)c1 (stereo not drawn) [Compound 10, 2-[2-[3-(Aminomethyl)phenoxy]ethyl]-4-(4-chlorobenzyl)-3,4-dihydro-3-oxo-2H-1,4-benzoxazine] | 122 µM
6 | NCc1cccc(OCCC2Oc3ccccc3N(Cc3ccccc3Cl)C2=O)c1 (stereo not drawn) [Compound 12, 2-[2-[3-(Aminomethyl)phenoxy]ethyl]-4-(2-chlorobenzyl)-3,4-dihydro-3-oxo-2H-1,4-benzoxazine] | 140 µM
7 | CC(C)(C)OC(=O)NCc1ccc(OCCC2Oc3ccccc3N(Cc3ccccc3Cl)C2=O)cc1 (stereo not drawn) [Compound 13, 2-[2-[4-(t-Butoxycarbonylaminomethyl)phenoxy]ethyl]-4-(2-chlorobenzyl)-3,4-dihydro-3-oxo-2H-1,4-benzoxazine] | 272 µM
8 | NCc1ccc(OCCC2Oc3ccccc3N(Cc3ccccc3Cl)C2=O)cc1 (stereo not drawn) [Compound 14, 2-[2-[4-(Aminomethyl)phenoxy]ethyl]-4-(2-chlorobenzyl)-3,4-dihydro-3-oxo-2H-1,4-benzoxazine] | 172 µM
9 | CC(C)(C)OC(=O)NCCc1cccc(OCCC2Oc3ccccc3N(Cc3ccccc3Cl)C2=O)c1 (stereo not drawn) [Compound 15, 2-[2-[3-(2-(t-Butoxycarbonylamino)ethyl)phenoxy]ethyl]-4-(2-chlorobenzyl)-3,4-dihydro-3-oxo-2H-1,4-benzoxazine] | 165 µM
10 | CC(C)(C)OC(=O)NCCc1ccc(OCCC2Oc3ccccc3N(Cc3ccccc3Cl)C2=O)cc1 (stereo not drawn) [Compound 17, 2-[2-[4-(2-(t-Butoxycarbonylamino)ethyl)phenoxy]ethyl]-4-(2-chlorobenzyl)-3,4-dihydro-3-oxo-2H-1,4-benzoxazine] | 352 µM
11 | NCCc1ccc(OCCC2Oc3ccccc3N(Cc3ccccc3Cl)C2=O)cc1 (stereo not drawn) [Compound 18, 2-[2-[4-(2-Aminoethyl)phenoxy]ethyl]-4-(2-chlorobenzyl)-3,4-dihydro-3-oxo-2H-1,4-benzoxazine] | 264 µM
12 | N=C(N)NCCc1ccc(OCCC2Oc3ccccc3N(Cc3ccccc3Cl)C2=O)cc1 (stereo not drawn) [Compound 20, 4-(2-Chlorobenzyl)-2-[2-[4-(2-guanidinoethyl)phenoxy]ethyl]-3,4-dihydro-3-oxo-2H-1,4-benzoxazine] | 16 µM
13 | N=C(N)NCc1ccc(OCCC2Oc3ccccc3N(Cc3ccc(Cl)cc3)C2=O)cc1 (stereo not drawn) [Compound 21, 4-(4-Chlorobenzyl)-2-[2-[4-(guanidinomethyl)phenoxy]ethyl]-3,4-dihydro-3-oxo-2H-1,4-benzoxazine] | 26 µM
14 | Cc1ccc2c(c1)N(Cc1cccc(Cl)c1)C(=O)C(CCOc1ccc(CCNC(=N)N)cc1)O2 (stereo not drawn) [Compound 24, 4-(3-Chlorobenzyl)-3,4-dihydro-2-[2-[4-(2-guanidinoethyl)phenoxy]ethyl]-6-methyl-3-oxo-2H-1,4-benzoxazine] | 56 µM
15 | N=C(N)NCCc1ccc(OCCC2Oc3cccnc3N(Cc3cccc(Cl)c3)C2=O)cc1 (stereo not drawn) [Compound 25, 4-(3-Chlorobenzyl)-3,4-dihydro-2-[2-[4-(2-guanidinoethyl)phenoxy]ethyl]-3-oxo-2H-pyrido[3,2-b]-1,4-oxazine] | 41 µM
16 | CC(C)(C)OC(=O)N=C(NCCc1ccc(OCCC2Oc3ccccc3N(Cc3ccccc3)C2=O)cc1)NC(=O)OC(C)(C)C (stereo not drawn) [Compound 27] | 340 µM
17 | N=C(N)NCCc1ccc(OCCC2Oc3ccccc3N(Cc3ccccc3)C2=O)cc1 (stereo not drawn) [Compound 28, 4-Benzyl-3,4-dihydro-2-{2-[4-[2-guanidinoethyl]phenoxy]ethyl}-3-oxo-2H-1,4-benzoxazine Hydrochloride 0.7 Hydrate] | 44 µM
18 | COc1ccccc1CN1C(=O)C(CCOc2ccc(CCNC(=N)N)cc2)Oc2ccccc21 (stereo not drawn) [Compound 29, 3,4-Dihydro-2-{2-[4-(2-guanidinoethyl)phenoxy]ethyl}-4-(2-methoxybenzyl)-3-oxo-2H-1,4-benzoxazine] | 54 µM
19 | N=C(N)NCCc1ccc(OCCC2Oc3ccccc3N(Cc3cccc(F)c3)C2=O)cc1 (stereo not drawn) [Compound 31, 3,4-Dihydro-4-(3-fluorobenzyl)-2-{2-[4-(2-guanidinoethyl)phenoxy]ethyl}-3-oxo-2 H-1,4-benzoxazine] | 46 µM
20 | COc1cccc(CN2C(=O)C(CCOc3ccc(CCNC(=N)N)cc3)Oc3ccccc32)c1 (stereo not drawn) [Compound 33, 3,4-Dihydro-2-{2-[4-(2-guanidinoethyl)phenoxy]ethyl}-4-(3-methoxybenzyl)-3-oxo-2H-1,4-benzoxazine] | 145 µM
21 | N=C(N)NCCc1ccc(OCCC2Oc3ccccc3N(Cc3cccc(OCc4ccccc4)c3)C2=O)cc1 (stereo not drawn) [Compound 35, 4-(3-Benzyloxybenzyl)-3,4-dihydro-2-{2-[4-(2-guanidinoethyl)phenoxy]ethyl}-3-oxo-2H-1,4-benzoxazine] | 24 µM
22 | N=C(N)NCCc1ccc(OCCC2Oc3ccccc3N(Cc3cccc(O)c3)C2=O)cc1 (stereo not drawn) [Compound 36, 3,4-Dihydro-2-{2-[4-(2-guanidinoethyl)phenoxy]ethyl}-4-(3-hydroxybenzyl)-3-oxo-2H-1,4-benzoxazine] | 72 µM
23 | COc1ccc(CN2C(=O)C(CCOc3ccc(CCNC(=N)N)cc3)Oc3ccccc32)cc1 (stereo not drawn) [Compound 37, 3,4-Dihydro-2-{2-[4-(2-guanidinoethyl)phenoxy]ethyl}-4-(4-methoxybenzyl)-3-oxo-2H-1,4-benzoxazine] | 51 µM
24 | N=C(N)NCCc1ccc(OCCC2Oc3ccccc3N(Cc3ccc(-c4ccccc4)cc3)C2=O)cc1 (stereo not drawn) [Compound 38, 3,4-Dihydro-2-{2-[4-(2-guanidinoethyl)phenoxy]ethyl}-3-oxo-4-(4-phenylbenzyl)-2H-1,4-benzoxazine] | 34 µM
